{
  "source": "patent US20140213576A1",
  "about": "“NOVEL COMPOUND USEFUL FOR THE TREATMENT OF DEGENERATIVE AND INFLAMMATORY DISEASES” (GALAPAGOS NV, priority 2013, published 2014)",
  "key": {"[1]": {"molecular_target": "T1, Recombinant human JAK3 catalytic domain (Homo sapiens, UniProt P52333)", "T1 construct": "Recombinant human JAK3 catalytic domain (amino acids 781-1124; catalog number PV3855); purchased Invitrogen PV3855", "test": "JAK3 inhibition assay (polyGT substrate)", "format": "biochemical", "conditions": "1 μM ATP, individual determinations, read-out: IC50 against JAK3", "method": "Recombinant human JAK3 catalytic domain (amino acids 781-1124; catalog number PV3855) was purchased from Invitrogen. 0.5 ng JAK3 protein was incubated with 2.5 μg polyGT substrate (Sigma catalog number P0275) in kinase reaction buffer (25 mM Tris pH 7.5, 0.5 mM EGTA, 10 mM MgCl2, 2.5 mM DTT, 0.5 mM Na3VO4, 5 mM b-glycerolphosphate, 0.01% Triton X-100, 1 μM non-radioactive ATP, 0.25 μCi ^33P-gamma-ATP (GE Healthcare, catalog number AH9968) final concentrations) with or without 5 μL containing test compound or vehicle (DMSO, 1% final concentration), in a total volume of 25 μL, in a polypropylene 96-well plate (Greiner, V-bottom). […]\n6005177) using a cell harvester (Perkin Elmer). […] 40 μL/well of Microscint-20 was added, the top of the plates was sealed and readout was performed using the Topcount (Perkin Elmer). Kinase activity was calculated by subtracting counts per min (cpm) obtained in the presence of a positive control inhibitor (10 μM staurosporine) from cpm obtained in the presence of vehicle. The ability of a test compound to inhibit this activity was determined as:\nPercentage inhibition=((cpm determined for sample with test compound present−cpm determined for sample with positive control inhibitor) divided by (cpm determined in the presence of vehicle−cpm determined for sample with positive control inhibitor))*100. […]"}, "[2]": {"molecular_target": "T2, JAK3 (Homo sapiens, UniProt P52333)", "T2 construct": "purchased Carna Biosciences 09CBS-0625B", "T2 sequence (P52333 1-1124)": "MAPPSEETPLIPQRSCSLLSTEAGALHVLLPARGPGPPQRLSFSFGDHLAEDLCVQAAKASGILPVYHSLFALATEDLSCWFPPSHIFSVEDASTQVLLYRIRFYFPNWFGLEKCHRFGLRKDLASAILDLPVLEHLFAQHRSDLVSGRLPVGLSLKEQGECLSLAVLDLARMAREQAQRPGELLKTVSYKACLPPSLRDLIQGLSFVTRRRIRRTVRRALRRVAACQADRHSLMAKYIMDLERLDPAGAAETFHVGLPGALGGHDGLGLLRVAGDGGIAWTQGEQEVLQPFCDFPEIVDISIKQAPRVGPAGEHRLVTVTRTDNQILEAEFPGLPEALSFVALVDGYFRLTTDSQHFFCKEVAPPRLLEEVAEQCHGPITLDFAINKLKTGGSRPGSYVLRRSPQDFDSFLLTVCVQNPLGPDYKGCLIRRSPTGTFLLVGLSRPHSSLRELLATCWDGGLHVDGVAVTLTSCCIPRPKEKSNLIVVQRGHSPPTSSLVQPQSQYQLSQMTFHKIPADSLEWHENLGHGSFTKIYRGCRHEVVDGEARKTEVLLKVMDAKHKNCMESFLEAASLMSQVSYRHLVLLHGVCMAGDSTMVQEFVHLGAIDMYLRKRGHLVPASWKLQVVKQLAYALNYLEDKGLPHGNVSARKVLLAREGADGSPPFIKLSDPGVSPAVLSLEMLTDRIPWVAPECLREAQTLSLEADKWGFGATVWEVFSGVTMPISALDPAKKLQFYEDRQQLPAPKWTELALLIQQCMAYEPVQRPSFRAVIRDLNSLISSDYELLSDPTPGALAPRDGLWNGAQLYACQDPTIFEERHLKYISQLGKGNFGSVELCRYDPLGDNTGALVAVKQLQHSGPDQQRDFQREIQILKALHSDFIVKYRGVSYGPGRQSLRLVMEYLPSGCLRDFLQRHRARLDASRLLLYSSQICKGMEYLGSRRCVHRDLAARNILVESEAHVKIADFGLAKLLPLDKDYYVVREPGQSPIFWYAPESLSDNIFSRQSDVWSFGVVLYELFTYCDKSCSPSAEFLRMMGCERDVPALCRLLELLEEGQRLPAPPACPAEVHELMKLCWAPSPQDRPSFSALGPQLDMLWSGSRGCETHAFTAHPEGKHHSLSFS", "test": "JAK3 Ki determination assay", "format": "biochemical", "conditions": "Lineweaver-Burk, varying ATP, polyGT substrate; read-out: Ki against JAK3", "method": "For the determination of Ki, different amounts of compound were mixed with the enzyme and the enzymatic reaction was followed as a function of ATP concentration. The Ki was determined by means of double reciprocal plotting of Km vs compound concentration (Lineweaver-Burk plot). JAK3 (Carna Biosciences, 09CBS-0625B) was used at a final concentration of 10 ng/mL. The substrate was Poly(Glu,Tyr)sodium salt (4:1), MW 20 000-50 000 (Sigma, P0275) The reaction was performed in 25 mM Tris pH 7.5, 0.01% Triton X-100, 0.5 mM EGTA, 2.5 mM DTT, 0.5 mM Na3VO4, 5 mM b-glycerolphosphate, 10 mM MgCl2 with varying concentrations of ATP and compound and stopped by addition of 150 mM phosphoric acid. Measurement of incorporated phosphate into the substrate polyGT was done by loading the samples on a filter plate (using a harvester, Perkin Elmer) and subsequent washing. Incorporated ^33P in polyGT was measured in a Topcount scintillation counter after addition of scintillation liquid to the filter plates (Perkin Elmer)."}, "[3]": {"test_system": "BA/F3 (ATCC CRL-12015)", "test": "BA/F3 viability assay", "format": "cell-based, murine", "conditions": "IL3-dependent viability, ATP-lite, individual determinations", "source_text": "The protocol describes the methods to analyse the activity of compounds on the ability to sustain the IL3-dependent viability of BA/F3 (ATCC CRL-12015; Collins et al, 1992)."}},
  "note": "Where “and” joins values, the source holds several entries; their conditions need not be identical. Equal values may be shown once.",
  "data": [
    {"smiles": "CCc1cc(C2CN(S(C)(=O)=O)C2)ncc1N(C)c1cc2c(cn1)ncn2C", "note": "[Compound 1, [4-Ethyl-6-(1-methanesulfonyl-azetidin-3-yl)-pyridin-3-yl]-methyl-(1-methyl-1H-imidazo[4,5-d]pyridin-6-yl)-amine]", "values": [
      {"measurement": "IC50", "setting": "[1]", "result": "1320 nM and 523 nM and 460 nM and 345 nM and 689 nM and 685 nM and 515 nM and 324 nM and 537 nM"},
      {"measurement": "Ki", "setting": "[2]", "result": 685, "unit": "nM"},
      {"measurement": "IC50", "setting": "[3]; 48 h, listed as compound of the invention", "result": 8.02, "unit": "µM"},
      {"measurement": "IC50", "setting": "[3]; Mus musculus, BaF3, 48 h", "result": "> 11.1", "unit": "µM"}
    ]}
  ]
}
